Biological target: T1, fusion protein of TG0022 protein and Giαl (^351Cys→Ile) (Homo sapiens, UniProt P63096+Q9BPV8, C351I)
T1 construct: made in house; host or cells: Sf9 (Spodoptera frugiperda) insect cells, baculovirus vector pVL1392; membrane fraction
Assay: [35S]GTPγS binding to membrane fraction containing fusion protein of TG0022 protein and Giαl (351Cys→Ile)
Format: biochemical
Details: Sf9 membrane fraction, TG0022-Giαl (351Cys→Ile) fusion; relative to control without test compound (FIG. 4)
Text: It was assumed that TG0022 protein would be a G protein-coupled receptor as is disclosed in Example 1. Then, by using a membrane fraction containing a fusion protein of TG0022 protein and G protein, the identification of ligand was done by a method of detecting a ligand-dependent binding with GTPγS (guanosine 5′-O-(3-thiotriphosphate)) (Wenzel-Seifert et al., Mol. Pharmacol., Vol. 58, pp. 954-966, 2000; Bahia et al., Biochemistry, Vol. 37, pp. 11555-11562, 1998).
The Sf9 cells were inoculated in a 10 cm plate which was coated with collagen so as to be about 70% confluency, and thereto were added Virus Solution III obtained above (100 μl) and a medium (12 ml), and the mixture was cultivated at 27° C. for 4 days. […]
The membrane fraction obtained in the above (2) (450 μl) was suspended into a reaction buffer (7.54 ml), and thereto was added GDP (10 mM, 10 μl). […] The filter was washed with a cooled reaction buffer (200 μl) three times, and the amount of [^35S]GTPγS (amount bound to the membrane fraction) on the filter was measured by a liquid scintillator. […] GTPγS was calculated by reducting an amount of non-specifically bound [^35S] GTPγS (which was measured in the presence of 10 μM GTPγS) from the amount of [^35S]GTPγS obtained above.

T1 sequence (Q9BPV8+P63096 fused P63096:C351I): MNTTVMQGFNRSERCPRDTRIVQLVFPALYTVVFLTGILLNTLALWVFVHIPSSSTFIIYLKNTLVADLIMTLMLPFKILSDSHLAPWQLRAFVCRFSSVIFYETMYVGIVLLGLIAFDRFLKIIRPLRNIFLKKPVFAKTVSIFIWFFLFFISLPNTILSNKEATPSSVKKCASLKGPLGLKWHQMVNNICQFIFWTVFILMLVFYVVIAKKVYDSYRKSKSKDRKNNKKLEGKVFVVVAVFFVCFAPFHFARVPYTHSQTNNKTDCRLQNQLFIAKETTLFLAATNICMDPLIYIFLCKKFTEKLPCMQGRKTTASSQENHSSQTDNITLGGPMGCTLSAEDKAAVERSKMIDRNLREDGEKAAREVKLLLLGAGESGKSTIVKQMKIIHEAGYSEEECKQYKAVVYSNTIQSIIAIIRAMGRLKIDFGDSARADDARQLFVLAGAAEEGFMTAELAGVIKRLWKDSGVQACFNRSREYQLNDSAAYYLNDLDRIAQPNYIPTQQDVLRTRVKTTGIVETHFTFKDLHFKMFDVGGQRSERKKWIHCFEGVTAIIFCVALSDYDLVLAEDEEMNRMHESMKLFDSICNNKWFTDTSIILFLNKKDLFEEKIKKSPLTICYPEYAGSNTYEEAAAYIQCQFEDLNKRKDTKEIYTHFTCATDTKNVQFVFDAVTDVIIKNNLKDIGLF

| SMILES | specific binding amount of [^35S] GTPγS |
| --- | --- |
| Nc1ncnc2c1ncn2[C@@H]1O[C@H](COP(=O)(O)OP(=O)(O)O)[C@@H](O)[C@H]1O [ADP] | increased dependent on the concentration |
| Nc1ncnc2c1ncn2[C@@H]1O[C@H](COP(=O)(O)OP(=O)(O)OP(=O)(O)O)[C@@H](O)[C@H]1O [ATP] | increased dependent on the concentration |

Source: patent publication US20030059878A1, “Novel purinoceptor and gene thereof” (TANABE SEIYAKU CO., LTD, priority 2001, published 2003)
